Data: patent US12611402B2, “Compounds and their use for the treatment of ALPHA1-antitrypsin deficiency” (CENTESSA PHARMACEUTICALS (UK) LIMITED, priority 2019, dated 2026)

Columns and labels:
human M A1AT = target: T1, human M A1AT (Homo sapiens, UniProt P01009); experiment: A1AT cell secretion assay using HEK-M cells (ELISA); format: cell-based; details: 10 μM, 48 h
T1 construct: expressed in transfected cells; host or cells: HEK-M cells (transfected HEK-EBNA)
Description: (§1) HEK-M cells, a human embryonic kidney cell line stably transfected with M A1AT, were plated into 96 well plates (3.0×10^5 cells/ml with 200 μl of media/well) overnight at 37° C. in a humidified atmosphere containing 5% CO2. Following incubation cells were washed with 200 μl serum-free media three times and media was replaced with serum-free media containing vehicle, 10 μM suberanilohydroxamic acid (SAHA) or a compound of Examples 1-16 in replicates of six for 48 h in a 37° C. incubator in a final volume of 200 μl. At the end of the incubation step the supernatants were removed from the wells, centrifuged at 1000×g at 4° C. for 10 min and were assayed for human A1AT levels by ELISA (Human Serpin A1/α1 antitrypsin duo set ELISA, R& D Systems, DY1268) per manufacturer's instructions.
(§2) Briefly, a 96 well plate was coated with human A1AT capture antibody overnight at room temperature (1:180 dilution from stock, 100 μl final volume/well). The capture antibody was then removed and wells washed three times with 300 μl wash buffer (0.05% Tween 20 in PBS) and then 200 μl reagent diluent ([…]) was incubated in each well for 1 h at room temperature. Diluted samples, standards (125, 250, 500, 1000, 2000, 4000 and 8000 pg/ml A1AT) or blanks were then added to each well in duplicate and the plates were covered with a plate sealer and left at room temperature for 2 h. At the end of the sample incubation step, samples were removed and all wells washed as previously and 100 μl detection antibody (1:180 dilution from stock) was added to each well and incubated for a further 2 h at room temperature. Following incubation with detection antibody, supernatant was removed and wells were washed as previously and 100 μl streptavidin-HRP solution (1:200 dilution from stock) was added to each well for 20 min in the dark. After which, 50 μl stop solution (2M H2SO4) was added and optical density (OD) of each well was read at 450 nm with 570 nm blank subtracted from each well using a microplate reader. A 4 parameter logistic curve was constructed using GraphPad Prism 7 and A1AT concentrations were determined in each sample by interpolation from a standard curve and multiplying by the appropriate dilution factor.
The amount of human M A1AT secreted from transfected HEK-EBNA cells into the media was measured by ELISA. SAHA at 10 μM was used a positive control for all in vitro A1AT secretion experiments.

human Z A1AT [1] = target: T2, human Z A1AT (Homo sapiens, UniProt P01009, E366K); experiment: A1AT cell secretion assay using HEK-Z cells (ELISA); format: cell-based; set-up: expressed in transfected cells; host or cells: HEK-Z cells (transfected HEK-EBNA); details: 48 h, supernatant ELISA
Description: HEK-Z cells, a human embryonic kidney cell line stably transfected with the human Z A1AT gene, were plated into 96 well plates (3.0×10^5 cells/ml with 200 μl of media/well) overnight at 37° C. in a humidified atmosphere containing 5% CO2. Following incubation cells were washed with 200 μl serum-free media three times and media was replaced with treatments in quadruplicate using serum-free media containing vehicle, 10 μM suberanilohydroxamic acid (SAHA) or the compounds of Examples 1-18 (at concentrations of 10, 33, 100 and 333 nM) for 48 h in a 37° C. incubator in a final volume of 200 μl. At the end of the incubation step the supernatants were removed from the wells, centrifuged at 1000×g at 4° C. for 10 min and were assayed for human A1AT levels by ELISA (Human Serpin A1/α1-antitrypsin duo set ELISA, R& D Systems, DY1268) per manufacturer's instructions.
as §2, with “At the end of the sample incubation step, samples were removed and all wells washed as previously and 100 μl detection antibody (1:180 dilution from stock) was added to each well and incubated for a further 2 h at room temperature. Following incubation with detection antibody, supernatant was removed and wells were washed as previously and 100 μl streptavidin-HRP solution (1:200 dilution from stock) was added to each well for 20 min in the dark.” left out
The amount of human A1AT secreted from transfected HEK-EBNA cells into the media was measured by ELISA. […]

human Siiyama A1AT = target: T3, human Siiyama A1AT (Homo sapiens, UniProt P01009, S77F); experiment: A1AT cell secretion assay using HEK-Siiyama cells (ELISA); format: cell-based; details: 48 h; for secretion of Siiyama A1AT from HEK-Siiyama cells: 1 or 10 μM
T3 construct: expressed in transfected cells; host or cells: HEK-Siiyama cells (transfected HEK-EBNA)
Description: as §1, with “HEK-Siiyama” for “HEK-M”, “the human Siiyama A1AT gene,” for “M A1AT,”, “Example 1 (at 1 and 10 μM)” for “Examples 1-16”, “eight” for “six”, “A1/α1-antitrypsin” for “A1/α1 antitrypsin”
as §2, with “At the end of the sample incubation step, samples were removed and all wells washed as previously and 100 μl detection antibody (1:180 dilution from stock) was added to each well and incubated for a further 2 h at room temperature. Following incubation with detection antibody, supernatant was removed and wells were washed as previously and 100 μl streptavidin-HRP solution (1:200 dilution from stock) was added to each well for 20 min in the dark.” left out
The amount of human Siiyama A1AT secreted from transfected HEK-EBNA cells into the media was measured by ELISA. […]

human Z A1AT [2] = target: T2, human Z A1AT; experiment: Circulating human Z A1AT levels in huZ mouse (plasma ELISA); format: in vivo; set-up: expressed in transfected cells; host or cells: transgenic huZ mouse (line Z11.03, C57Bl/6), expressed in liver, measured in plasma; details: 5, 15 or 50 mg/kg twice a day by oral gavage for 14 days; plasma days 12, 13 and 14 vs basal
Excerpt: The huZ mouse (also referred to as the PiZZ mouse) is a transgenic mouse strain that contains multiple copies of the Z variant of the human A1AT gene, developed by two separate groups (Dycaico et al Science (1988) 242:1409-12) and Carlson et al J. Clin Invest (1989) 83:1183-90). HuZ mice are on a C57Bl/6 background and express the human Z A1AT protein in liver tissue. The mice used in this study are from the progeny of Carlson and colleagues (transgenic line Z11.03). […]
HuZ mice (n=4/group; male or female) with basal human Z A1AT plasma levels of between 200-600 μg/ml were treated with either vehicle or the compounds of Examples 1 or 17 at 5, 15 or 50 mg/kg twice a day by oral gavage for 14 consecutive days. […] Human Z A1AT levels in mouse plasma samples were measured by ELISA (Human Serpin A1/α1 antitrypsin duo set ELISA, R& D Systems, DY1268) per manufacturer's instructions.
Briefly, a 96 well plate was coated with human A1AT capture antibody overnight at room temperature (1:180 dilution from stock, 100 μl final volume/well). […] After which, 50 μl stop solution (2M H2SO4) was added and optical density (OD) of each well was read at 450 nm with 570 nm blank subtracted from each well using a microplate reader. […]

T1 sequence (P01009 25-418): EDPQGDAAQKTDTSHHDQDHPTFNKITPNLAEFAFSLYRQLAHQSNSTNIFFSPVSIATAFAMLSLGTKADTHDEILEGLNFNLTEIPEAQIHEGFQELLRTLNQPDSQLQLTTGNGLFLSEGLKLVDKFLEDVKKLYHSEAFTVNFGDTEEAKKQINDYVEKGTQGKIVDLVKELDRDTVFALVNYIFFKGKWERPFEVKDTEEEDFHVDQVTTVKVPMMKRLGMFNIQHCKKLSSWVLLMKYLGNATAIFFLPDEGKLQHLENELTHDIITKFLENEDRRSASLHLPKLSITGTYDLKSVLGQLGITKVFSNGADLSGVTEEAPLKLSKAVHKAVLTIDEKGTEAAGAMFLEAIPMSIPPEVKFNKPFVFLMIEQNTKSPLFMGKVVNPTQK
T2 sequence (P01009 25-418 E366K): as the sequence (P01009 25-418) above, with E342K counted along it
T3 sequence (P01009 25-418 S77F): as the sequence (P01009 25-418) above, with S53F counted along it

SMILES | secretion of human M A1AT from HEK-M cells (human M A1AT) | Median A1AT increase over vehicle at 300 nM (human Z A1AT [1]) | further results
O=C(O)C1CCN(S(=O)(=O)c2cccc(Cl)c2)CC1 [Example 3, 1-((3-Chlorophenyl)sulfonyl)piperidine-4-carboxylic acid] | did not lead to an increase | – | –
O=C(O)[C@H]1CCN(S(=O)(=O)c2ccccc2C(F)(F)F)C1 [Example 15, (S)-1-((2-(Trinfluoromethyl)phenyl)sulfonyl)pyrrolidine-3-carboxylic acid] | – | 230 | –
O=C(O)C1CCN(S(=O)(=O)c2cccc(Cl)c2Cl)CC1 [Example 4, 1-((2,3-Dichlorophenyl)sulfonyl)piperidine-4-carboxylic acid] | did not lead to an increase | – | –
O=C(O)C1CCN(S(=O)(=O)c2ccc(C(F)(F)F)cc2)CC1 [Example 12, 1-((4-(Trifluoromethyl)phenyl)sulfonyl)piperidine-4-carboxylic add] | – | 200 | –
O=C(O)[C@H]1CCCN(S(=O)(=O)c2ccccc2C(F)(F)F)C1 [Example 17, (S)-1-((2-(Trinfluoromethyl)phenyl)sulfonyl)piperidine-3-carboxylic acid] | did not lead to an increase | 310 | secretion of Siiyama A1AT from HEK-Siiyama cells (human Siiyama A1AT): did not stimulate secretion; secretion of human Z A1AT compared to baseline levels in huZ mice (human Z A1AT [2]): stimulated secretion
O=C(CCCCCCC(=O)Nc1ccccc1)NO [SAHA, suberanilohydroxamic acid, reference compound] | – | – | Siiyama A1AT secretion from HEK-Siiyama cells (positive control) (human Siiyama A1AT; 10 μM): stimulated an increase

Now from value to compound, other results behind:

secretion of human M A1AT from HEK-M cells (human M A1AT) | SMILES | Median A1AT increase over vehicle at 300 nM (human Z A1AT [1]) | further results
did not lead to an increase | O=C(O)C1CCN(S(=O)(=O)c2ccccc2C(F)(F)F)CC1 [Example 10, 1-((2-(Trifluoromethyl)phenyl)sulfonyl)piperidine-4-carboxylic acid] | – | –
did not lead to an increase | O=C(O)[C@@H]1CCCN(S(=O)(=O)c2ccccc2C(F)(F)F)C1 [Example 18, (R)-1-((2-(Trifluoromethyl)phenyl)sulfonyl)piperidine-3-carboxylic acid] | – | –
did not lead to an increase | O=C(O)C1CCN(S(=O)(=O)c2cccc3cccnc23)CC1 [Example 1, 1-(Quinolin-8-ylsulfonyl)piperidine-4-carboxylic acid] | – | secretion of Siiyama A1AT from HEK-Siiyama cells (human Siiyama A1AT): did not stimulate secretion; secretion of human Z A1AT compared to baseline levels in huZ mice (human Z A1AT [2]): stimulated secretion
